In US20060223879A1, “Non-steroidal farnesoid x receptor modulators” (priority 2002, published 2006):
“And” between values parts separate entries of the source, which are not always exact repeats. Equal entries are not always repeated. Where two headings read alike, the source gives them in different places.

Target: T1, FXR (Homo sapiens, UniProt Q96RI1)
T1 construct: using a full length FXR on a natural response element; expressed in transfected cells
T1 sequence (Q96RI1 1-486): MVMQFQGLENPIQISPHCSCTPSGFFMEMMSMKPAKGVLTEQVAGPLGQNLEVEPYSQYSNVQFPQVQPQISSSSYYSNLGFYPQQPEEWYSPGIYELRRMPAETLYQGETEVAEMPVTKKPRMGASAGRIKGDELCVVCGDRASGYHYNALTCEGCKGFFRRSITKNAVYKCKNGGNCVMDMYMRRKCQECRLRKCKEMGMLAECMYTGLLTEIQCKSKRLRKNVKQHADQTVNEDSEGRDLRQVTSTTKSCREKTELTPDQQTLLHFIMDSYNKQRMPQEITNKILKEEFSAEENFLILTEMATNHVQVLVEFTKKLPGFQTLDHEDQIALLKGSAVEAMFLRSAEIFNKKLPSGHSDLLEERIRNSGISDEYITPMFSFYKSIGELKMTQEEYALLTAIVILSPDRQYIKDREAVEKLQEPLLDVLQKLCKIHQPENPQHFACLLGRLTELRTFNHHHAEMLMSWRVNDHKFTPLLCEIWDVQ
Experiment: cell-based transcription assay, FXR responsive promoter linked to a luciferase reporter
Parameters: RE: scale not given here
Conditions: for RE: RE not defined in the source
From the text: In addition to ensuring that only cell permeable compounds were selected for further optimization, this approach allows for the detection of FXR activation in a natural system (i.e., correct folding of the protein and in the presence of a complete compliment of co-activators and co-repressors).
The feasibility of creating high throughput screens (XIS) for ORs was explored using FXR as a candidate orphan receptor (OR) with a known activator, chenodeoxycholic acid (CDCA) as a ligand. The screen is based on the co-transfection of a full-length receptor with the reporter vector containing a natural hormone response element under a minimal eukaryotic promoter. […] Using this 384-well format, the high throughput screening (HTS) approach to FXR as a candidate OR was employed. […] A central question in the feasibility studies is whether this library is suitable for screening for nuclear receptor ligands. Samples of this library were first reformatted into a 384-well format and then subjected to the FXR cell-based assays described above and assessed for FXR-mediated transcriptional activity. Cells were exposed to approximately 10 μM of sample for 18 hrs prior to washing and luciferase analysis.
EC50 values were determined with Prism 3.0 software via the activity of the subject compound in the previously described cell based assay.

[1] = Tables 1-15, FXR activation, cell-based reporter assay, read-out: EC50
[2] = FXR activation, cell-based reporter assay, read-out: EC50
[3] = library screening hits and leads, read-out: activity (EC50)

| Structure (SMILES) | EC50 [1] | RE (Tables 1-15) | EC50 [2] | EC50 [3] | FXR activation (in words) (cell-based reporter assay) |
| --- | --- | --- | --- | --- | --- |
| CCOCC=Cc1ccc(CN(C(=O)C2CCCCC2)c2cccc(C=CC(=O)OC)c2)cc1 [Compound 157] | – | 2.06 | 198 nM | – | – |
| COc1c(CN(C(=O)C2CCCCC2)C(C)C)ccc2c1OC(C)(C)C=C2 [Compound 19] | – | – | – | 5000 to 10000 nM | – |
| COC(=O)/C=C/c1cccc(N(Cc2ccc3c(c2OC)OC(C)(C)C=C3)C(=S)C2CC2)c1 [Compound 83] | – | – | – | – | inactive |
| COC(=O)/C=C/c1cccc(N(Cc2ccc(-c3cccc(Cl)c3)cc2)C(=O)C(C)C)c1 [Compound 233] | – | – | – | – | excellent activity |
| COC(=O)C=Cc1cccc(N(Cc2ccc3c(c2OC)OC(C)(C)C(O)C3Sc2ccccc2)C(=O)c2ccccc2)c1 (stereo not shown) [Compound 98] | – | – | – | – | did not improve the activity |
| COC(=O)C=Cc1cccc(N(Cc2ccc(C=CC(=O)OC(C)(C)C)cc2OCc2ccccc2)C(=O)C2CCCCC2)c1 [Compound 163] | > 1000 nM | 0.38 | – | – | – |
| CC(C)(C)OC(=O)C=Cc1ccc(CN(C(=O)C2CCCCC2)c2cccc(C=CC(N)=O)c2)cc1 [Compound 135] | > 1000 nM | 0.50 | – | – | marked decline in potency |
| COC(=O)/C=C/c1cccc(N(C)C(=O)C2CCCCC2)c1 [Compound 147] | > 1000 nM | 0.09 | – | – | – |
| COC(=O)C=Cc1cccc(N(Cc2ccc(-c3ccc(C)s3)cc2)C(=O)C2CCCCC2)c1 [Compound 128] | – | 1.78 | 206 nM | – | – |
| COc1cc(CN(C(=O)CC(C)C)c2ccccc2)cc2c1OC(C)(C)C=C2 [Compound 24] | – | – | – | 5000 to 10000 nM | – |
| COC(=O)/C=C/c1cccc(N(Cc2ccc(-c3ccccc3)cc2)C(=O)C2CCCCC2)c1 [Compound 124] | – | 0.71 | 510 nM and 69 nM | – | – |
| COC(=O)C=Cc1cccc(N(Cc2ccc(C=CC(=O)OC(C)(C)C)cc2OC(=O)c2ccccc2)C(=O)C2CCCCC2)c1 [Compound 165] | > 1000 nM | 0.16 | – | – | – |
| COC(=O)C=Cc1cccc(N(Cc2ccc(C=CCOc3ccccc3)cc2)C(=O)C2CCCCC2)c1 [Compound 158] | > 1000 nM | 0.64 | – | – | only micromolar activity |
| COc1c(CN(C(=O)C2CCCCC2)c2ccccc2)ccc2c1OC(C)(C)C=C2 [Compound 27] | – | – | – | 5000 to 10000 nM | among the most active at this stage |
| COC(=O)/C=C/c1cccc(N(Cc2ccc(-c3ccc4c(c3)OCO4)cc2)C(=O)C2CCCCC2)c1 [Compound 244] | – | 1.90 | 38 nM | – | excellent activity |
| COC(=O)C=Cc1cccc(N(Cc2ccc(C=CC(=O)OC(C)(C)C)cc2OC(C)=O)C(=O)C2CCCCC2)c1 [Compound 164] | > 1000 nM | 0.16 | – | – | – |
| CCOC(=O)COc1cc(C=CC(=O)OC(C)(C)C)ccc1CN(C(=O)C1CCCCC1)c1cccc(C=CC(=O)OC)c1 [Compound 167] | > 1000 nM | 0.16 | – | – | – |
| COC(=O)C=Cc1cccc(N(Cc2ccc(C=Cc3ccc(C(C)(C)C)cc3)cc2)C(=O)C2CCCCC2)c1 [Compound 123] | – | – | > 1000 nM | – | – |
| COC(=O)/C=C/c1cccc(N(Cc2cccc(/C=C/C(=O)OC(C)(C)C)c2)C(=O)C2CCCCC2)c1 [Compound 107] | – | – | – | – | only micromolar potency |
| COC(=O)C=Cc1cccc(N(Cc2ccc(CCC(=O)OC(C)(C)C)cc2)C(=O)C2CCCCC2)c1 [Compound 159] | 240 nM | 1.56 | – | – | two-fold decrease in potency from the parent compound 105 |
| COC(=O)C=Cc1cccc(N(Cc2ccc(C=Cc3scnc3C)cc2)C(=O)C2CCCCC2)c1 [Compound 210] | – | 0.53 | 227 nM | – | – |
| COc1c(CN(C(=O)CC(C)C)C(C)C)ccc2c1OC(C)(C)C=C2 [Compound 21] | – | – | – | 5000 to 10000 nM | – |

Continued, values first:

| EC50 [1] | RE (Tables 1-15) | EC50 [2] | EC50 [3] | FXR activation (in words) (cell-based reporter assay) | Structure (SMILES) |
| --- | --- | --- | --- | --- | --- |
| 1370 nM | 0.41 | – | – | – | COC(=O)/C=C/c1cccc(N(Cc2ccc(-c3cccc(OC)c3)cc2)C(=O)NC(C)C)c1 [Compound 225] |
| 26 nM | 1.38 | – | – | excellent activity | COC(=O)/C=C/c1cccc(N(Cc2ccc(-c3ccc(C)cc3)cc2)C(=O)C2CCCCC2)c1 [Compound 235] |
| 89 nM | 1.74 | 69 nM | – | excellent activity | COC(=O)/C=C/c1cccc(N(Cc2ccc(-c3ccc(SC)cc3)cc2)C(=O)C2CCCCC2)c1 [Compound 125] |
| 71 nM | 1.33 | – | – | excellent activity | COC(=O)/C=C/c1cccc(N(Cc2ccc(/C=C/c3cccc(F)c3)cc2)C(=O)C(C)C)c1 [Compound 202] |
| 249 nM | 1.15 | – | – | – | COC(=O)/C=C/c1cccc(N(Cc2ccc(-c3ccc(F)c(F)c3)cc2)C(=O)C(C)C)c1 [Compound 214] |
| 119 nM | 1.38 | – | – | – | COC(=O)/C=C/c1cccc(N(Cc2ccc(/C=C/c3ccccc3)cc2)C(=O)NC(C)C)c1 [Compound 200] |
| 212 nM | 1.96 | 127 to 250 nM and 205 to 236 nM | – | – | COC(=O)/C=C/c1cccc(N(Cc2ccc(/C=C/C(=O)OC(C)(C)C)cc2)C(=O)NC(C)C)c1 [Compound 145] |
| > 1000 nM | 0.12 | – | – | – | COC(=O)C=Cc1cccc(N(Cc2ccc(C=CC(=O)OC(C)(C)C)cc2O)C(=O)C2CCCCC2)c1 [Compound 161] |
| 420 nM | 0.84 | – | – | – | COC(=O)/C=C/c1cccc(N(Cc2ccc(-c3cccc(OC(F)(F)F)c3)cc2)C(=O)C2CCCCC2)c1 [Compound 253] |
| 19 nM | 1.25 | – | – | excellent activity | COC(=O)/C=C/c1cccc(N(Cc2ccc(-c3ccc4c(c3)OCO4)cc2)C(=O)C(C)C)c1 [Compound 245] |
| > 1000 nM | 0.08 | – | – | – | COC(=O)C=Cc1cccc(N(Cc2ccc(C=CC(=O)O)cc2)C(=O)C2CCCCC2)c1 [Compound 104] |
| > 1000 nM | 0.16 | – | – | – | COC(=O)C=Cc1cccc(N(Cc2ccc(C=CC(=O)OC(C)(C)C)cc2OS(C)(=O)=O)C(=O)C2CCCCC2)c1 [Compound 166] |
| 8180 nM | 0.23 | – | – | – | COC(=O)/C=C/c1cccc(N(Cc2ccc(-c3ccc(F)c(F)c3)cc2)C(=O)NC(C)C)c1 [Compound 215] |
| 72 nM | 1.70 | – | – | excellent activity | COC(=O)/C=C/c1cccc(N(Cc2ccc(-c3ccc(F)c(F)c3)cc2)C(=O)C2CCCCC2)c1 [Compound 213] |
| 339 nM | 0.58 | – | – | – | COC(=O)/C=C/c1cccc(N(Cc2ccc(/C=C/c3cccc(Cl)c3)cc2)C(=O)NC(C)C)c1 [Compound 182] |
| 267 nM | 0.70 | – | – | – | COC(=O)/C=C/c1cccc(N(Cc2ccc(/C=C/c3cccc(C(F)(F)F)c3)cc2)C(=O)C(C)C)c1 [Compound 187] |
| 238 nM | 1.96 | 127 to 250 nM and 205 to 236 nM | – | – | COC(=O)/C=C/c1cccc(N(Cc2ccc(/C=C/C(=O)OC(C)(C)C)cc2)C(=O)c2ccccc2)c1 [Compound 143] |
| 262 nM | 1.02 | – | – | – | COC(=O)/C=C/c1cccc(N(Cc2ccc(-c3ccc(C(C)(C)C)cc3)cc2)C(=O)NC(C)C)c1 [Compound 264] |
| 205 nM | 1.93 | 127 to 250 nM and 205 to 236 nM | – | – | COC(=O)/C=C/c1cccc(N(Cc2ccc(/C=C/C(=O)OC(C)(C)C)cc2)C(=O)c2ccco2)c1 [Compound 144] |
| 147 nM | 1.37 | – | – | – | CCOc1cccc(-c2ccc(CN(C(=O)C3CCCCC3)c3cccc(/C=C/C(=O)OC)c3)cc2)c1 [Compound 226] |
| 233 nM | 1.16 | – | – | – | COC(=O)/C=C/c1cccc(N(Cc2ccc(-c3cc(Cl)ccc3OC)cc2)C(=O)C2CCCCC2)c1 [Compound 241] |
| 97 nM | – | – | – | excellent activity | COC(=O)/C=C/c1cccc(N(Cc2ccc(-c3ccc(OC)cc3)cc2)C(=O)C(C)C)c1 [Compound 230] |
| 256 nM | 1.48 | 256 nM | – | – | COC(=O)C=Cc1cccc(N(Cc2ccc(-c3ccc(C(C)=O)s3)cc2)C(=O)C2CCCCC2)c1 [Compound 129] |
| 226 nM | 0.79 | – | – | – | COC(=O)/C=C/c1cccc(N(Cc2ccc(-c3cc(Cl)ccc3OC)cc2)C(=O)C(C)C)c1 [Compound 242] |
| 343 nM | 0.59 | – | – | – | COC(=O)/C=C/c1cccc(N(Cc2ccc(-c3ccc(CC(C)C)cc3)cc2)C(=O)C(C)C)c1 [Compound 263] |
